According to patent publication US20230263773A1, “COMBINATION THERAPY WITH DEOXYURIDINE TRIPHOSPHATASE INHIBITORS” (CV6 Therapeutics (NI) Limited, priority 2020, published 2023):

What was measured:
Type in all cases: cell-based
[1] = tested on: PD-L1; assay: Cell-surface PD-L1 expression by flow cytometry; details: 12.5 μM Compound A, 1 μM FUdR; 24 hours
Experimental: (§1) Experimental Overview. Programmed death-ligand 1 (PD-L1) is a type 1 transmembrane protein that plays a major role in suppressing the innate and adaptive arms of the immune system. The PD-1/PD-L1 pathway represents an adaptive immune resistance mechanism exerted by tumor cells in response to endogenous immune anti-tumor activity and is a well-established therapeutic target in cancer therapy. Cancer cells were treated with vehicle control (DMSO), the fluoropyrimidine FUdR (also known as floxuridine) alone, Compound A alone, or the combination of Compound A and FUdR, and the expression level of the immune checkpoint protein PD-L1 was measured by both Western blotting and flow cytometry and compared to control. Cell lines assayed for total PD-L1 protein expression by Western blotting included, pancreatic cancer, PANC-1; non-small cell lung cancer, H460; colorectal cancer, HCT116; breast cancer, MCF-7; melanoma, MeWo. Two cell lines were advanced to analyze cell surface PD-L1 by flow cytometry, MCF-7 and PANC-1.
Cell Surface Flow Cytometry. Cells were seeded in 6-well plates and permitted to adhere overnight. Media was removed and replaced with media containing the indicated concentrations of Compound A, FUdR or a combination of both, positive control cells were treated with IFNγ. Cells were then incubated for 24 hours. At the conclusion of specified timepoints, cells were washed with PBS and removed from the plates using trypsin-EDTA. Cells were counted and 300,000 cells were washed in staining buffer and incubated in PD-L1 or IgG antibody on ice for 40 minutes. Cells were then washed in staining buffer twice and finally resuspended in 300 μL of staining buffer and transferred to BD Falcon™ round-bottom tube. Dot plot for FSC v SSC were used to gate cell population and doublets were excluded on FL-4 histogram height versus area/width. IgG isotype control stained sample was used to identify the positively stained population. Percentage positive population and median fluorescent intensity values were exported and analyzed in Microsoft Excel and GraphPad Prism 6. Statistical analysis consisted of one-way ANOVA with Tukey's multiple comparisons testing.

[2] = tested on: HMGB1; assay: Extracellular release of HMGB1 into cell culture media by ELISA; details: 12.5 μM Compound A, 1 μM FUdR; 24 hours
Excerpt: Experimental Overview. High mobility group box 1 (HMGB1) is a nuclear non-histone chromatin-binding protein. The release of HMGB1 by immune cells or severely damaged cancer cells functions as an immunostimulatory chemokine and is a well-known damage-associated molecular pattern (DAMP). The release of HMGB1 during cell death is characteristic of immunogenic cell death, a sub-class of cell death that results in the potent stimulation of the innate and subsequently the stimulation of adaptive immune responses. HMGB1 functions as a pro-inflammatory cytokine-like factor and can form hetero-complexes with other immune regulators. HMGB1 binds to TLRs, RAGE and CXCR4 on immune cells stimulating chemotaxis and the secretion of pro-inflammatory factors. HCT116 colon carcinoma and JU77 mesothelioma cells were treated with vehicle control (DMSO), 12.5 μM Compound A, 1 μM FUdR, or the combination of 12.5 μM Compound A and 1 μM FUdR for 24 hours and the release of HMGB1 into the extracellular culture media was measured by ELISA.
Cell Line Model Selection and Preparation. The HCT116 cancer cell line was purchased from ATCC. JU77 cell line was a kind gift from Dr Dan Longley, QUB. Cells were cultured and expanded in humidified incubators at 5% CO2 until sufficient cells were available.
Drug Preparation and Treatments. All drugs/compounds were prepared freshly in cell culture media from 50 mM frozen stocks prior to treatment. Cells were seeded in 6-well culture dishes and allowed to adhere overnight before treatment with Compound A, FUdR, or Compound A in combination with FUdR. Additional wells were treated with doxorubicin to act as a positive inducer of HMGB1. Twenty-four hours after treatment, the media was aspirated and centrifuged (2500 rpm, 5 min, at 4° C.) to remove any cellular debris. The supernatant was collected for immediate processing or stored at −80° C. for later assay.
Detection of HMGB1 Release. HMGB1 was quantified using the HMGB1 ELISA kit (ST51011, IBL International). Enzyme conjugate (HMGB1 conjugated to peroxidase) and standard were reconstituted in 12 ml enzyme conjugate diluent, and 1 ml diluent buffer respectively and aliquots frozen at −80° C. until required. All reagents and samples were brought to room temperature immediately prior to use. A standard curve was prepared for the high sensitive detection range (0.313-10 ng/ml). 50 μl diluent buffer was pipetted into each well of the microtiter plate. 50 μl of standard, sample, positive control or negative control (diluent buffer) was pipetted, in duplicate, into respective wells as determined by the plate set up. The plate was covered with adhesive foil and incubated at 37° C. for 20 to 24 hours on an orbital shaker (450 rpm). Following the incubation period the incubation solution was discarded and the plate washed (5×300 μl per well). Excess wash buffer was removed by inversion on to a paper towel. 100 μl enzyme conjugate was added to each well, the plate covered with adhesive foil and incubated at 25° C. for 2 hours on an orbital shaker (450 rpm). Following the incubation the solution was discarded and the plate washed as before. Fresh color solution was prepared immediately prior to use and 100 μl added to each well using a multichannel pipette. The plate was then incubated for 30 minutes at room temperature. The color reaction was stopped by pipetting 100 μl of stop reagent to each well using a multichannel pipette. The plate was shaken gently to mix and the backs of the wells were cleaned using a lint-free tissue. The concentration of HMGB1 was determined on a CLARIOstar microplate reader by measuring the absorbance at 450 nm using a reference reading at 640 nm. Data was exported to Microsoft Excel for processing and statistical analysis consisting of one-way ANOVA with Tukey's Multiple Comparisons Test was performed in GraphPad Prism 6.

[3] = tested on: PD-L1; assay: Total PD-L1 expression by Western blotting in cancer cell lines; details: 12.5 μM Compound A
Experimental: as §1
Western Blotting. Cells were cultured in the presence of the indicated concentrations of Compound A, 5-fluorodeoxyuridine (FUdR), or a combination of both in a P100 cell culture dishes for 12 or 24 hours. At the conclusion of specified time-points, cells were scraped in PBS containing NaF and Na3VO4, pelleted by centrifugation, washed with PBS and pelleted again. […] The concentration of the isolated supernatant was determined by BCA assay on a CLARIOstar microplate reader and the required volume of whole-cell lysate was denatured by the addition of Sample Buffer, Laemmli 2×Concentrate followed by boiling at 95° C. for 5 min. […] Images were analyzed in ImageJ to obtain PD-L1 relative density values which were normalised to relative density of loading control. Once the primary image acquisition was complete, the pre-cast gels and corresponding immunoblots were further imaged for total protein as a quality control measure following a UV-induced 1-minute reaction to produce fluorescence. […]

[4] = tested on: calreticulin; assay: Cell surface calreticulin by flow cytometry; details: 6.25 μM Compound A, 1 μM FUdR, 500 nmol/L doxorubicin; 4 hours
Excerpt: Experimental Overview. Tumor cells undergoing immunogenic cell death (ICD) emit damage associated molecular patterns (DAMPs). ICD is a sub-class of cell death that results in the potent stimulation of the innate immune system and subsequently the stimulation of adaptive immune responses. The cell surface expression of calreticulin during cell death is one of several established DAMPs characteristic of immunogenic cell death. Calreticulin translocates from the endoplasmic reticulin to the cell membrane where it functions as a potent “eat me” signal for macrophages and dictates tumor antigen transfer and therefore the immunogenicity of cancer cell death. PANC1 pancreatic carcinoma cells were treated with vehicle control (DMSO), 6.25 μM Compound A, 1 μM FUdR, or the combination of 6.25 μM Compound A and 1 μM FUdR for 4 hours and the concentration of cell surface calreticulin was deteremined by flow cytometry.
Cell Line Model Selection and Preparation. The PANC1 pancreatic cancer cell line was purchased from ATCC. Cells were cultured and expanded in humidified incubators at 5% CO2 until sufficient cells were available.
Drug Preparation and Treatments. All drugs/compounds were prepared freshly in cell culture media from 50 mM frozen stocks prior to treatment. Cells were seeded in 6-well plates and permitted to adhere overnight. Media was removed and replaced with media containing 6.25 μM Compound A, 1 μM FUdR or a combination of 6.25 μM Compound A and 1 μM FUdR. […]
Detection of Cell Surface Calreticulin. Cell surface calreticulin was quantified by flow cytometry. […] Cells were counted and 300,000 cells were washed in staining buffer and incubated in Calreticulin (D3E6) XP Alexa Fluor 488 Conjugate antibody (Cell Signaling) or IgG antibody (negative control antibody) on ice for 40 minutes. […] The IgG isotype control stained sample was used to correctly identify the positively stained population in which median fluorescence intensity was determined. Median fluorescence intensity values were exported and analyzed in Microsoft Excel and GraphPad Prism 6. […]

[5] = tested on: cytoplasmic dsDNA; assay: Cytoplasmic dsDNA by fluorescence microscopy; details: 12.5 μM Compound A, 1 μM FUdR; 24 hours
Experimental: Experimental Overview. Aberrant host DNA metabolism as a result of failed cell division or genotoxic stress leads to the release of nuclear DNA into the cytoplasm and is a well-known damage-associated molecular pattern. The subsequent detection of cytoplasmic double-stranded DNA (dsDNA) by pattern recognition receptors triggers a variety of innate immune signaling and biological responses. HCT116 colon and PANC-1 pancreatic carcinoma cells were seeded on coverslips and treated with vehicle control (DMSO), 12.5 μM Compound A, 1 μM FUdR, or the combination of 12.5 μM Compound A and 1 μM FUdR for 24 hours. At 24 hours post-treatment cells were fixed and stained with an anti-dsDNA (double-stranded DNA) antibody and the nuclear stain DAPI. Immunofluorescence was detected and images acquired by fluorescence microscopy to quantify levels of dsDNA in the cytoplasm.
Cell lines, Drug Treatments and Fluorescence Microscopy. HCT116 colon and PANC-1 pancreatic carcinoma cells (5×10^4) were seeded onto glass coverslips within 24-well plates in relevant media. The following day, seeding media was removed and replaced with drug-containing media and incubated for 24 hours. At 24 […] hours post-treatment cells were fixed and processed. Briefly, cell membranes were permeabilised, incubated with FITC-conjugated dsDNA marker antibody (HYB331-01) from Santa Cruz Biotechnology, sc-58749 (1:500 dilution) and mounted onto slides with ProLong Gold antifade with DAPI (Invitrogen P36931). Images were acquired on a Nikon Fluorescent Microscope. Exposure time was selected for FITC using negative and positive controls and kept constant throughout image acquisition. Images were analyzed using ImageJ software. Cell nuclei were identified using DAPI staining. Intensity of cytoplasmic dsDNA staining was established by quantifying the intensity of the staining in the immediate area surrounding the nucleus. Software settings: Gaps to ring=3 and Ring size=25 (FIG. 16).

SMILES	increase in cell-surface PD-L1 expression compared to control, MCF-7 cells [1]	increase in cell-surface PD-L1 expression compared to control, PANC-1 cells [1]	increase in concentration of HMGB1 in cell culture media compared to control, HCT116 cells [2]	increase in concentration of HMGB1 in cell culture media compared to control, JU77 cells [2]	total PD-L1 expression, all cell lines ([3]; MeWo, MCF-7, HCT116, H460, PANC-1, 12 and 24 hours)	increase in cell surface expression of calreticulin compared to control, PANC1 cells [4]	increase in mean relative cytoplasmic DNA compared to vehicle-treated control, HCT116 cells [5]	increase in mean relative cytoplasmic DNA compared to vehicle-treated control, PANC-1 cells [5]	total PD-L1 expression in HCT116, MCF-7, PANC-1 and Mewo cell lines ([3]; 1 μM FUdR, 12 and 24 hours, compared to control)	total PD-L1 expression in H460 cell line ([3]; PD-L1 high at baseline, 1 μM FUdR)
C[C@@H](NS(=O)(=O)CCCCCN1CC(=O)NC1=O)c1ccc(F)c(OCC2CC2)c1 [Compound A]	No significant difference	the same as vehicle control cells	no significant difference	no significant difference	unchanged	no significant difference	no statistically significant difference	74%		
O=c1[nH]c(=O)n([C@H]2C[C@H](O)[C@@H](CO)O2)cc1F [FUdR]	4.7 fold	~10 fold	no significant difference	no significant difference		no significant difference	no statistically significant difference	56%	significant increase	did not induce
COc1cccc2c1C(=O)c1c(O)c3c(c(O)c1C2=O)C[C@@](O)(C(=O)CO)C[C@@H]3O[C@H]1C[C@H](N)[C@H](O)[C@H](C)O1 [doxorubicin]			213%	failed to elicit any significant increase		450%				
